Here are results for one molecule from ChEMBL document CHEMBL4602687, “Dual Binding to Orthosteric and Allosteric Sites Enhances the Anticancer Activity of a TRAP1-Targeting Drug” (J Med Chem, 2020).

The structures appear in SMILES notation. Where a chain is given by its changes, count along the chain named. Activity calls are given as the source filed them. No cut-off for these calls is given here.

Assay [1] concerns NCI-H460. Nature of the assay: Antitumor activity against human NCI-H460 cells xenografted in nude mouse assessed as reduction in tumor cell proliferation at 5 mg/kg, ip administered daily by Ki67 staining based immunohistochemistry analysis. The format is functional, organism-based.
Assay [2] has as its system T1, Heat shock protein 75 kDa, mitochondrial (Homo sapiens), Q12931 [R114E,R402Q].
T1 sequence (whole entry): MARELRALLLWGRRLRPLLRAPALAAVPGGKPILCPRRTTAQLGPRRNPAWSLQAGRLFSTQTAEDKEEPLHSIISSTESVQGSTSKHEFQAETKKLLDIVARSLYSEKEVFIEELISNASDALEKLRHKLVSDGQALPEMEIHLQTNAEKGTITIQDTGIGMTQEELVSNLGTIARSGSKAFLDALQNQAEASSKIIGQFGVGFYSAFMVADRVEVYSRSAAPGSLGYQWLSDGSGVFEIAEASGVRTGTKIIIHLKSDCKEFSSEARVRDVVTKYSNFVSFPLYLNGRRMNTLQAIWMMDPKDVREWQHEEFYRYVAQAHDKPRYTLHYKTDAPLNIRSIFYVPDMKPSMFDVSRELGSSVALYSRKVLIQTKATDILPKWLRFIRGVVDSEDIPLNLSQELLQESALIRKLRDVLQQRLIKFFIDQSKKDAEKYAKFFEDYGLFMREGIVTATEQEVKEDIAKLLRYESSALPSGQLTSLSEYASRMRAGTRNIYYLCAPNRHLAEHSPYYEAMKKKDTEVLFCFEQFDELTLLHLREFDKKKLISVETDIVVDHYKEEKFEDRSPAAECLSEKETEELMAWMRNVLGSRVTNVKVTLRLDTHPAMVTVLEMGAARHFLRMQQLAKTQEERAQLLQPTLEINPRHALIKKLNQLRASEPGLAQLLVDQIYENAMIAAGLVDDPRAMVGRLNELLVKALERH
As to the kind of experiment: Stimulation of recombinant […] human TRAP1 R114E/R402Q mutant ATPase activity expressed in Escherichia coli BL21 (DE3) up to 20 uM preincubated for 0.5 hrs followed by ATP addition and measured after 3 hrs by PiColorLock Gold reagent based colorimetric assay.

Assay [3] concerns the target T2, Heat shock protein 75 kDa, mitochondrial (Homo sapiens) (UniProt Q12931).
T2 sequence (whole entry): T1 sequence (whole entry) with E114R, Q402R
Nature of the assay: Inhibition of TRAP1 in human PC3 cells assessed as increase in AMPK phosphorylation at 5 uM measured after 2 to 12 hrs by Western blot analysis. To be noted: PC-3. The class given is cell-based. A general note: In western blotting, separated proteins are transferred to a membrane and probed.

Assay [4] has as its system LN-229. Nature of the assay: Cytotoxicity against human LN229 cells assessed as reduction in cell viability up to 3 uM measured after 24 hrs by MTT assay. The format is functional, cell-based. A general note: Formazan colour is commonly taken as a measure of viable cells.
The subject of assay [5] is Mus musculus. As to the kind of experiment: In vivo inhibition of TRAP1 in nude mouse xenografted with human NCI-H460 cells assessed as increase in SIRT3 degradation at 5 mg/kg, ip administered daily by Western blot analysis. The format is functional, organism-based. (In xenograft studies the graft and the host belong to different species.)
Assay [6] has as its target T2, Heat shock protein 75 kDa, mitochondrial (Homo sapiens). As to the kind of experiment: Inhibition of TRAP1 in human PC3 cells assessed as increase in reactive oxygen species generation at 10 uM measured after 2 hrs by Mito-SOX probe based flow cytometry. The note with it: PC-3. The format is cell-based.
Assay [7] has the same target. As to the kind of experiment: Binding affinity to recombinant wild-type human TRAP1 ATP site expressed in Escherichia coli BL21 (DE3) assessed as induction of conformational change by measuring closed state population of TRAP1 at 10 uM preincubated for 30 mins followed by ATP addition and measured after 30 mins by TEM analysis (reference value: 52.1 +/- 0.6 %).
Assay [8] deals with NCI-H460. As to the kind of experiment: Antitumor activity against human NCI-H460 cells xenografted in nude mouse assessed as induction of tumor cell death by measuring increase in cleaved caspase-3 expression at 5 mg/kg, ip administered daily by Western blot analysis. The class given is functional, organism-based.
Assay [9] concerns NCI-H460. Nature of the assay: Cytotoxicity against human NCI-H460 cells assessed as reduction in cell viability up to 3 uM measured after 24 hrs by MTT assay. The format is functional, cell-based.
The test system of assay [10] is NCI-H460. As to the kind of experiment: Antitumor activity against human NCI-H460 cells xenografted in nude mouse assessed as induction of tumor cell death by measuring increase in cleaved caspase-9 expression at 5 mg/kg, ip administered daily by Western blot analysis. The format is functional, organism-based.
Assay [11] has as its target T2, Heat shock protein 75 kDa, mitochondrial (Homo sapiens). As to the kind of experiment: Inhibition of recombinant wild-type human TRAP1 chaperone activity expressed in Escherichia coli BL21 (DE3) at 5 uM preincubated for 30 mins followed by denatured luciferase and ATP addition by luciferase refolding assay.
The target is the same in assay [12]. Nature of the assay: Stimulation of recombinant wild-type human TRAP1 ATPase activity expressed in Escherichia coli BL21 (DE3) at 2 to 5 uM preincubated for 0.5 hrs followed by 0.2 mM ATP addition and measured after 3 hrs by PiColorLock Gold reagent based colorimetric assay relative to control.
The target is the same in assay [13]. Nature of the assay: Stimulation of recombinant wild-type human TRAP1 ATPase activity expressed in Escherichia coli BL21 (DE3) at 2 to 5 uM preincubated for 0.5 hrs followed by 2 mM ATP addition and measured after 3 hrs by PiColorLock Gold reagent based colorimetric assay relative to control.
For assay [14] the target is unchanged. As to the kind of experiment: Inhibition of TRAP1 in human PC3 cells assessed as increase in CHOP expression at 5 uM measured after 2 to 12 hrs by Western blot analysis. The class given is cell-based. To be noted: PC-3.

For the molecule `Nc1ncnc2c1nc(Sc1cc3c(cc1I)OCO3)n2CCCCCCCCCC[P+](c1ccccc1)(c1ccccc1)c1ccccc1`, the outcome in assay [1], in assay [4], in assay [8], in [9] and in assay [10] was Active. In assay [2], the outcome was inactive. In addition, the inhibition entry in assay [3], in assay [5], in [6], in assay [11] and in assay [14] was “Active” in each case. For the same molecule, in assay [7], the Activity is 94.2%. Besides, the fold change (FC) in assay [12] turned out to be 1.2; in assay [13] it was 2.
